Reference: patent US20220380574A1, “DUAL-FUNCTION MELT ADDITIVES” (3M INNOVATIVE PROPERTIES COMPANY, priority 2019, published 2022)

Test system: S. aureus ATCC 6538
Test: Modified AATCC Method 100, antibacterial activity of nonwoven BMF webs (viable cell count after 24 hrs)
Type: cell-based
Settings: statement in words on the additive in electret webs
Description: Besides the charge-enhancing properties, the charge-enhancing additives also provide anti-microbial properties. Antimicrobials are agents that kill microorganisms or stops their growth. Antimicrobials work at a cellular level to continually disrupt and prevent the growth of microorganisms. By creating an inhospitable environment for microorganisms like bacteria, mold and mildew, antimicrobials protect everyday products like countertops, toys, surface coatings, textiles and hospital equipment. The antimicrobial activity of the current charge-enhancing additives in electret webs can be measured in a variety of different ways. One particularly suitable measurement technique is the standard test method of “Modified AATCC Method 100—Assessment of Antibacterial Finishes on Textile Materials” was used for the nonwoven webs performance test. This method is used to evaluate the antibacterial activity of textile products treated with antibacterial finish, which is suitable for nonwoven hydrophobic fabric webs. Details of the test method are provided in the Examples section, below. The standard test method of “Modified AATCC Method 100—Assessment of Antibacterial Finishes on Textile Materials” was used for the nonwoven webs performance test. […] Viable cell count of S. Aureus ATCC 6538 on BMF web after 24 hrs were measured.

SMILES: c1ccc(-c2nc3ccccc3[nH]2)cc1 [CA-4, 2-Phenylbenzimidazole]
- combination of charge-enhancing and anti-microbial properties: do not have this combination of properties
